# According to the supplement of paper PMC11061612:
# How the values were obtained:
# AZD5153 = compound: COc1nnc2ccc(N3CCC(c4ccc(OCCN5CCN(C)C(=O)[C@H]5C)cc4)CC3)nn12 [AZD5153]; settings: max 1 µM
# How it was run: (§1)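 Cancer cell lines were seeded in 1536-well plates in 7.5 μl DMEM/F12 or RPMI with 10% FBS, held 24 hours at 37°C and 5% CO2, then dosed for 72 hours (final DMSO typically 0.2%). Viability was read by CellTiter-Glo 2.0 luminescence and scaled between blank-well and DMSO-well means. The single-agent IC50 comes from dose responses fitted to a two-parameter logistic curve with a non-linear mixed effects model.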
# AZD4320 = compound: CN(CC[C@H](CSC1=CC=CC=C1)NC2=C(C=C(C=C2)S(=O)(=O)NC(=O)C3=CC=C(C=C3)N4CCC(CC4)[C@H](C5=CC=CC=C5C6=CC=C(C=C6)Cl)O)S(=O)(=O)C(F)(F)F)CCO [AZD4320]; settings: max 1 µM
# How it was run: as §1
# 5-Fluorouracil = compound: O=c1[nH]cc(F)c(=O)[nH]1 [5-Fluorouracil]; settings: max 20 µM
# How it was run: as §1
# Prexasertib = compound: COc1cccc(OCCCN)c1-c1cc(Nc2cnc(C#N)cn2)n[nH]1 [Prexasertib]; settings: max 1 µM
# How it was run: as §1
# Etoposide = compound: COc1cc([C@@H]2c3cc4c(cc3[C@@H](O[C@@H]3O[C@@H]5CO[C@@H](C)O[C@H]5[C@H](O)[C@H]3O)[C@H]3COC(=O)[C@H]23)OCO4)cc(OC)c1O [Etoposide]; settings: max 10 µM
# How it was run: as §1
# Gemcitabine = compound: Nc1ccn([C@@H]2O[C@H](CO)[C@@H](O)C2(F)F)c(=O)n1 [Gemcitabine]; settings: max 0.3 µM
# How it was run: as §1
# Carboplatin = compound: C1CC(C1)(C(=O)[O-])C(=O)[O-].N.N.[Pt+2] [Carboplatin]; settings: max 10 µM
# How it was run: as §1
# [1] = compound: O=C(Nc1ccc2[nH]nc(-c3ccncc3)c2c1)[C@@H]1CCN(CC(=O)N2CCN(c3ccc(-c4ncccn4)cc3)CC2)C1; settings: max 5 µM
# How it was run: as §1
# SG3199 = compound: CC1=CN2[C@@H](C1)C=NC3=CC(=C(C=C3C2=O)OC)OCCCCCOC4=C(C=C5C(=C4)N=C[C@@H]6CC(=CN6C5=O)C)OC [SG3199]; settings: max 0.001 µM
# How it was run: as §1
# Crizotinib = compound: C[C@@H](Oc1cc(-c2cnn(C3CCNCC3)c2)cnc1N)c1c(Cl)ccc(F)c1Cl [Crizotinib]; settings: max 10 µM
# How it was run: as §1
# Trametinib = compound: CC(=O)Nc1cccc(-n2c(=O)n(C3CC3)c(=O)c3c(Nc4ccc(I)cc4F)n(C)c(=O)c(C)c32)c1 [Trametinib]; settings: max 1 µM
# How it was run: as §1
# AZD5363 = compound: C1CN(CCC1(C(=O)N[C@@H](CCO)C2=CC=C(C=C2)Cl)N)C3=NC=NC4=C3C=CN4 [AZD5363]; settings: max 10 µM
# How it was run: as §1
# Taselisib = compound: Cc1nc(-c2cn3c(n2)-c2ccc(-c4cnn(C(C)(C)C(N)=O)c4)cc2OCC3)n(C(C)C)n1 [Taselisib]; settings: max 10 µM
# How it was run: as §1
# Alisertib = compound: COc1cc(Nc2ncc3c(n2)-c2ccc(Cl)cc2C(c2c(F)cccc2OC)=NC3)ccc1C(=O)O [Alisertib]; settings: max 10 µM
# How it was run: as §1
# AZD7648 = compound: Cc1cc2ncnn2cc1Nc1ncc2c(n1)n(C1CCOCC1)c(=O)n2C [AZD7648]; settings: max 10 µM
# How it was run: as §1
# AZD1390 = compound: CC(C)n1c(=O)n(C)c2cnc3cc(F)c(-c4ccc(OCCCN5CCCCC5)nc4)cc3c21 [AZD1390]; settings: max 0.3 µM
# How it was run: as §1
# Olaparib = compound: O=C(c1cc(Cc2n[nH]c(=O)c3ccccc23)ccc1F)N1CCN(C(=O)C2CC2)CC1 [Olaparib]; settings: max 10 µM
# How it was run: as §1
# AZD1775 = compound: C=CCn1c(=O)c2cnc(Nc3ccc(N4CCN(C)CC4)cc3)nc2n1-c1cccc(C(C)(C)O)n1 [AZD1775]; settings: max 3 µM
# How it was run: as §1
# Lapatinib = compound: CS(=O)(=O)CCNCc1ccc(-c2ccc3ncnc(Nc4ccc(OCc5cccc(F)c5)c(Cl)c4)c3c2)o1 [Lapatinib]; settings: max 10 µM
# How it was run: as §1
# AZD2811 = compound: CCN(CCO)CCCOc1ccc2c(Nc3cc(CC(=O)Nc4cccc(F)c4)[nH]n3)ncnc2c1 [AZD2811]; settings: max 1 µM
# How it was run: as §1
# Paclitaxel = compound: CC(=O)O[C@H]1C(=O)[C@@]2(C)[C@H]([C@H](OC(=O)c3ccccc3)[C@]3(O)C[C@H](OC(=O)[C@H](O)[C@@H](NC(=O)c4ccccc4)c4ccccc4)C(C)=C1C3(C)C)[C@]1(OC(C)=O)CO[C@@H]1C[C@@H]2O [Paclitaxel]; settings: max 3 µM
# How it was run: as §1
# AZD6738 = compound: C[C@@H]1COCCN1C2=NC(=NC(=C2)C3(CC3)[S@](=N)(=O)C)C4=C5C=CNC5=NC=C4 [AZD6738]; settings: max 10 µM
# How it was run: as §1
# MK-2206 = compound: NC1(c2ccc(-c3nc4ccn5c(=O)[nH]nc5c4cc3-c3ccccc3)cc2)CCC1 [MK-2206]; settings: max 10 µM
# How it was run: as §1
# Gefitinib = compound: COc1cc2ncnc(Nc3ccc(F)c(Cl)c3)c2cc1OCCCN1CCOCC1 [Gefitinib]; settings: max 10 µM
# How it was run: as §1
# AZD5991 = compound: Cc1c2c(nn1C)CSCc1cc(n(C)n1)CSc1cc(c3ccccc3c1)OCCCc1c(C(=O)O)n(C)c3c-2c(Cl)ccc13 [AZD5991]; settings: max 1 µM
# How it was run: as §1
# Doxorubicin = compound: COc1cccc2c1C(=O)c1c(O)c3c(c(O)c1C2=O)C[C@@](O)(C(=O)CO)C[C@@H]3O[C@H]1C[C@H](N)[C@H](O)[C@H](C)O1 [Doxorubicin]; settings: max 1 µM
# How it was run: as §1
# SRA737 = compound: N#Cc1cnc(Nc2cc(NC[C@H]3CNCCO3)c(C(F)(F)F)cn2)cn1 [SRA737]; settings: max 10 µM
# How it was run: as §1
# Selumetinib = compound: Cn1cnc2c(F)c(Nc3ccc(Br)cc3Cl)c(C(=O)NOCCO)cc21 [Selumetinib]; settings: max 10 µM
# How it was run: as §1
# Savolitinib = compound: C[C@@H](c1ccc2nccn2c1)n1nnc2ncc(-c3cnn(C)c3)nc21 [Savolitinib]; settings: max 1 µM
# How it was run: as §1
# Venetoclax = compound: CC1(C)CCC(CN2CCN(c3ccc(C(=O)NS(=O)(=O)c4ccc(NCC5CCOCC5)c([N+](=O)[O-])c4)c(Oc4cnc5[nH]ccc5c4)c3)CC2)=C(c2ccc(Cl)cc2)C1 [Venetoclax]; settings: max 1 µM
# How it was run: as §1
# AZD0156 = compound: CN(C)CCCOc1ccc(-c2ccc3ncc4c(c3c2)n(C2CCOCC2)c(=O)n4C)cn1 [AZD0156]; settings: max 3 µM
# How it was run: as §1
# SN-38 = compound: CCc1c2c(nc3ccc(O)cc13)-c1cc3c(c(=O)n1C2)COC(=O)[C@]3(O)CC [SN-38]; settings: max 0.3 µM
# How it was run: as §1
# Palbociclib = compound: CC(=O)c1c(C)c2cnc(Nc3ccc(N4CCNCC4)cn3)nc2n(C2CCCC2)c1=O [Palbociclib]; settings: max 10 µM
# How it was run: as §1
# AZD8186 = compound: C[C@@H](Nc1cc(F)cc(F)c1)c1cc(C(=O)N(C)C)cc2c(=O)cc(N3CCOCC3)oc12 [AZD8186]
# How it was run: as §1
# Dasatinib = compound: CC1=C(C(=CC=C1)Cl)NC(=O)C2=CN=C(S2)NC3=CC(=NC(=N3)C)N4CCN(CC4)CCO [Dasatinib]; settings: max 2 µM
# How it was run: as §1
# Capivasertib = compound: C1CN(CCC1(C(=O)N[C@@H](CCO)C2=CC=C(C=C2)Cl)N)C3=NC=NC4=C3C=CN4 [Capivasertib]; settings: max 10 µM
# How it was run: as §1
Cell Line,"IC50, cell viability 72 h (AZD5153) [nM]","IC50, cell viability 72 h (AZD4320) [nM]","IC50, cell viability 72 h (5-Fluorouracil) [nM]","IC50, cell viability 72 h (Prexasertib) [nM]","IC50, cell viability 72 h (Etoposide) [nM]","IC50, cell viability 72 h (Gemcitabine) [nM]","IC50, cell viability 72 h (Carboplatin) [nM]","IC50, cell viability 72 h [1] [nM]","IC50, cell viability 72 h (SG3199) [nM]","IC50, cell viability 72 h (Crizotinib) [nM]","IC50, cell viability 72 h (Trametinib) [nM]","IC50, cell viability 72 h (AZD5363) [nM]","IC50, cell viability 72 h (Taselisib) [nM]","IC50, cell viability 72 h (Alisertib) [nM]","IC50, cell viability 72 h (AZD7648) [nM]","IC50, cell viability 72 h (AZD1390) [nM]","IC50, cell viability 72 h (Olaparib) [nM]","IC50, cell viability 72 h (AZD1775) [nM]","IC50, cell viability 72 h (Lapatinib) [nM]","IC50, cell viability 72 h (AZD2811) [nM]","IC50, cell viability 72 h (Paclitaxel) [nM]","IC50, cell viability 72 h (AZD6738) [nM]","IC50, cell viability 72 h (MK-2206) [nM]","IC50, cell viability 72 h (Gefitinib) [nM]","IC50, cell viability 72 h (AZD5991) [nM]","IC50, cell viability 72 h (Doxorubicin) [nM]","IC50, cell viability 72 h (SRA737) [nM]","IC50, cell viability 72 h (Selumetinib) [nM]","IC50, cell viability 72 h (Savolitinib) [nM]","IC50, cell viability 72 h (Venetoclax) [nM]","IC50, cell viability 72 h (AZD0156) [nM]","IC50, cell viability 72 h (SN-38) [nM]","IC50, cell viability 72 h (Palbociclib) [nM]","IC50, cell viability 72 h (AZD8186; max 10 µM) [nM]","IC50, cell viability 72 h (Dasatinib) [nM]","IC50, cell viability 72 h (Capivasertib) [nM]","IC50, cell viability 72 h (AZD8186; max 3 µM) [nM]"
A673 (Ewing's Sarcoma),> 1000,169,> 20000,34.4,2270,17.8,> 10000,> 5000,> 1,> 10000,> 1000,> 10000,6720,1460,> 10000,> 300,> 10000,> 3000,> 10000,132,6.99,1980,> 10000,> 10000,> 1000,284,> 10000,> 10000,> 1000,> 1000,> 3000,2.59,> 10000,> 10000,> 2000,,
BE-13 (T-Lymphoblastic Leukemia),312,99.9,> 20000,20.1,2340,89.9,> 10000,> 5000,> 1,585,> 1000,> 10000,> 10000,155,> 10000,> 300,> 10000,161,8670,44.1,14.1,4780,7600,> 10000,> 1000,326,3730,> 10000,> 1000,> 1000,> 3000,16.8,3380,> 10000,809,,
BFTC-909 (Kidney Carcinoma),909,> 1000,,24.7,,,,,> 1,> 10000,> 1000,,3930,7720,> 10000,> 300,> 10000,579,> 10000,> 1000,,3460,> 10000,> 10000,> 1000,616,,> 10000,> 1000,> 1000,> 3000,38.7,> 10000,,> 2000,6100,> 3000
CAL-72 (Osteosarcoma),> 1000,> 1000,> 20000,16.9,6020,128,> 10000,> 5000,> 1,> 10000,> 1000,> 10000,> 10000,5040,> 10000,> 300,> 10000,587,> 10000,> 1000,71.2,2870,> 10000,> 10000,> 1000,> 1000,> 10000,> 10000,> 1000,> 1000,> 3000,42.3,> 10000,> 10000,> 2000,,
ESS-1 (Other Solid Carcinomas),319,> 1000,> 20000,4.52,500,30.6,> 10000,2980,> 1,4820,989,5500,1060,3890,> 10000,> 300,> 10000,151,> 10000,533,5.06,1770,> 10000,> 10000,> 1000,65.3,930,> 10000,> 1000,> 1000,> 3000,2.56,> 10000,4500,125,,
